From publication PMC9791066, “Investigations into the antibacterial effects and potential mechanism of gambogic acid and neogambogic acid” (Frontiers in Microbiology, 2022) come the findings set out here.

The structures appear in SMILES notation. Converted amounts (≈) assume the structure as drawn. Read-outs that look alike come from different tables or passages of the source.

A word on the IC50: it is the concentration that inhibits the measured activity by half. A word on the Kd: it is the constant that tells how readily two partners part at equilibrium. The low end stands for tighter binding, the high end for weaker binding.

The target in test [1] is T1, EfaUPPS (L146A) (Enterococcus faecalis, UniProt Q831K9, L152A).
T1 construct: His tag; made in house; host or cells: E. coli BL21(DE3)
T1 sequence (Q831K9 whole entry L152A): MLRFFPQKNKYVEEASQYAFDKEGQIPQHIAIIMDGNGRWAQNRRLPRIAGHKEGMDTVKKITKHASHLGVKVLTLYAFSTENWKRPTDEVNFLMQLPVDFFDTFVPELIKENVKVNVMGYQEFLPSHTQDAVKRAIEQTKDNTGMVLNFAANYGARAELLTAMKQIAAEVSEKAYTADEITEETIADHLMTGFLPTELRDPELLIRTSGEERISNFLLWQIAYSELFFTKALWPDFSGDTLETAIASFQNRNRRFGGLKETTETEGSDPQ
The test can be described thus: UPPS inhibition assay, EfaUPPS L146A mutant. The note with it: for effect of mutation on inhibitory effect of compound on EfaUPPS enzyme activity: L146A mutant compared with wild-type; for IC50 fold higher than that of the wild-type: L146A mutant vs wild-type (~3 μM). The test is classed as biochemical. As for the experimental part:
The EfaUPPS site-directed mutagenesis was generated using QuikChange site-directed mutagenesis kit (Agilent) according to the manufacturer’s instructions. The purification of site-directed mutation was using a similar strategy as described above.
The UPPS inhibition assay was carried out by measuring the fluorescence of the reaction mixture in a black 96-well microtiter plate (Corning, United States). […] After the indicated incubation period, the reaction was terminated by the addition of 10 μl of 0.5 M EDTA solution. Transferred 50 μl of the reaction mixture into a new 96-well microtiter plate, and quenched with an equal volume of Master Reaction Mix (Pyrophosphate Assay Kit, Sigma-Aldrich, USA) for 30 min. The UPPS inhibitory activity was performed by calculating the fluorescence percentage through determining the fluorescence absorbance of reaction mixture at 316 and 456 nm. Data of UPPS inhibitory activities were plotted versus compound concentrations on a semi-log scale using GraphPad Prism7. All the results were the means of at least three biological replicates.

In another test the target is T2, EfaUPPS (R42A) (Enterococcus faecalis, UniProt Q831K9, R48A).
T2 construct: His tag; made in house; host or cells: E. coli BL21(DE3)
T2 sequence (Q831K9 whole entry R48A): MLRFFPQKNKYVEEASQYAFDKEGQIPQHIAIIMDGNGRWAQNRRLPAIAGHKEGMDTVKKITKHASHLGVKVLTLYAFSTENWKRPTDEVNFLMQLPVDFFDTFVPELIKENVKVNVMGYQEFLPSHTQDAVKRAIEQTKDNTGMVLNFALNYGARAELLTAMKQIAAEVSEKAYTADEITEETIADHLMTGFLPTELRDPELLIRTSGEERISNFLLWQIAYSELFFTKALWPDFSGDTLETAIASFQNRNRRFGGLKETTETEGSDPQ
The experiment in a line: Microscale thermophoresis binding assay, EfaUPPS R42A. As for the experimental part:
(§1) To characterize the binding affinity between EfaUPPS and GA or NGA, the MST binding assay was performed as previously described ([Lin et al., 2020]). In brief, His-tagged EfaUPPS and site-directed mutated EfaUPPS were labeled with the NT- 647-NHS dye using the Monolith NTTM Protein Labeling Kit RED-NHS (NanoTemper Technologies). Two-fold serially diluted GA or NGA was mixed with 10 nM of labeled EfaUPPS or its derivatives in 10 μl of binding buffer (137 mM NaCl, 2.7 mM KCl, 10 mM Na2HPO4, 1.8 mM KH2PO4, and 0.05% Tween-20, pH 7.8), incubated for 15 min, at room temperature. And then, loaded the mixtures into NT.115 premium coated capillaries (NanoTemper Technologies). MST trace signals were collected from the IR laser on to off for about 20 s, under the 5% LED power and high MST power mode. The change of molecular thermophoresis was monitored by standardized fluorescence value Fnorm, and the binding curve was plotted according to the values of Fnorm. The formed complex affinity was analyzed by MO Affinity Analysis software version 2.3. Apparent dissociation constants (Kd) were calculated using nonlinear fitting assuming one specific binding site with the GraphPad Prism 7 software with the following formula: Y = B^∗Max X/KD + X.
(§2) (^∗ where BMax is the maximum theoretical specific binding; here BMax = 1).
In general terms: In MST a laser heats a spot of the sample, and binding alters the fluorescence response.

Test [2] has as its target T1, EfaUPPS (L146A). The test can be described thus: Microscale thermophoresis binding assay, EfaUPPS L146A. As to conditions: MST, no binding. As for the experimental part: as §1, §2
In test [3] the test system is Enterococcus faecalis ATCC29212. The test can be described thus: MIC, microtiter broth dilution. The test is classed as cell-based. As to conditions: Enterococcus faecalis. As to the method: (§3) Antibacterial activities were performed by examining the minimal inhibitory concentrations (MICs), which was determined by a microtiter broth dilution method as previously described ([Cotsonas King and Wu, 2009]), with minor modifications. Briefly, 96-well plates (Corning) were inoculated with 100 μl of LB broth per well containing 7 × 10^5 CFU/mL bacteria, followed by adding 100 μl of LB broth containing two-fold serial dilutions of the test compounds. […] After 18 h of incubation, the MIC was determined to be the lowest concentration without visible bacterial growth. The results were the averages of at least three biological replicates.

For test [4], the system named is Escherichia coli ATCC25922. The test can be described thus: MIC, microtiter broth dilution. The test is classed as cell-based. As to conditions: Escherichia coli. As for the experimental part: as §3
Test [5] concerns Listeria monocytogenes ATCC19117. The experiment in a line: MIC, microtiter broth dilution. The test is classed as cell-based. The note with it: Listeria monocytogenes. As to the method:
as §3

Test [6] has as its system Staphylococcus aureus ATCC29213. The test can be described thus: MIC, microtiter broth dilution. The test is classed as cell-based. As to conditions: Staphylococcus aureus. As for the experimental part: as §3
On the technique in general: Dilution methods test growth across graded concentrations, often in twofold steps.

For the next test, the system named is Escherichia coli BAS 849. The test can be described thus: microbe, parasite or virus in culture. The note with it: Escherichia coli. The test is classed as cell-based. As to the method: as §3
Test [7] concerns Escherichia coli BL21 (DE3). The test can be described thus: microbe, parasite or virus in culture. The test is classed as cell-based. As to conditions: Escherichia coli, 18 h. As to the method: as §3
The test system of the next test is Escherichia coli DH5α. The experiment in a line: microbe, parasite or virus in culture. The test is classed as cell-based. The note with it: Escherichia coli, 18 h. As to the method:
as §3

The target in the next test is T3, EfaUPPS (Enterococcus faecalis, UniProt Q831K9).
T3 construct: His tag; made in house; host or cells: E. coli BL21(DE3)
T3 sequence (Q831K9 whole entry): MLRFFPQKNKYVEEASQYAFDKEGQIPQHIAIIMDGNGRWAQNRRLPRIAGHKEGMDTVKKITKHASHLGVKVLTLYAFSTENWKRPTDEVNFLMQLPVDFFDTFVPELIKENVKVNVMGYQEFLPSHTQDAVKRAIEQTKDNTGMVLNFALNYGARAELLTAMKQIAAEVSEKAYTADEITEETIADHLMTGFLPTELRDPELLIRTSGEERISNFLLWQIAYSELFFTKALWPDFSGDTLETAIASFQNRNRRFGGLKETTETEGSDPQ
The test can be described thus: Compound/substrate-UPPS binding competition experiment. The test is classed as biochemical. As to conditions: 0-20 μM FPP, 1/2/5 μM compound. As for the experimental part: The compound/substrate-UPPS binding competition experiment was performed as the above descriptions. The difference is that the reaction buffer containing 35 μM IPP, different concentrations of FPP ranged from 0–20 μM, and in the presence of 0/1/2/5 μM GA/NGA, respectively. Data were plotted with competitive inhibition model using GraphPad Prism7.

Regarding `CC(C)=CCC[C@]1(C)C=Cc2c(O)c3c(c(CC=C(C)C)c2O1)O[C@]12C(=C[C@@H]4C[C@H]1C(C)(C)O[C@@]2(C/C=C(/C)C(=O)O)C4=O)C3=O` [GA, gambogic acid], the 50% inhibitory concentration (IC50) at EfaUPPS (L146A) [1] is approximately 30 µM. In addition, the “effect of mutation on inhibitory effect of compound on EfaUPPS enzyme activity” value at EfaUPPS (L146A) [1] is listed as “significantly decreased”. Besides, the “IC50 fold higher than that of the wild-type” value against EfaUPPS (L146A) [1] is “about 10 fold”. Further, the values for the Kd at EfaUPPS (R42A) and at EfaUPPS (L146A) [2] were 40.5 ± 17.2 µM and more than 50000 µM, respectively. For the same compound, the MIC in test [3] (ATCC29212, LB broth, 18 h, read-out: MIC) is 2 µg/mL (≈ 3.18 µM); in [4] (ATCC25922, LB broth, 18 h, read-out: MIC), more than 64 µg/mL; in test [5] (ATCC19117, LB broth, 18 h, read-out: MIC), 4 µg/mL (≈ 6.36 µM); in test [6] (ATCC29213, LB broth, 18 h, read-out: MIC), 2 µg/mL (≈ 3.18 µM); in the test with Escherichia coli BAS 849 (BAS849, LB broth, 18 h, strain with deficient outer-membrane structure, read-out: MIC) it was 8 µg/mL (≈ 12.7 µM); in test [7] (LB broth, read-out: MIC), more than 64 µg/mL. Moreover, in the test with Escherichia coli DH5α (LB broth, read-out: MIC), the MIC is more than 64 µg/mL. The “competition with FPP for binding to EfaUPPS” value at EfaUPPS is listed as “compete with FPP”.
Take `CC(C)=CCC[C@]1(C)CC(O)c2c(O)c3c(c(CC=C(C)C)c2O1)O[C@]12C(=C[C@@H]4C[C@H]1C(C)(C)O[C@@]2(C/C=C(/C)C(=O)O)C4=O)C3=O` (stereo partly drawn) [NGA, neogambogic acid]: the half-maximal inhibitory concentration (IC50) against EfaUPPS (L146A) [1] is approximately 30 µM. Further, the “effect of mutation on inhibitory effect of compound on EfaUPPS enzyme activity” value at EfaUPPS (L146A) [1] is “significantly reduced”. Besides, the “IC50 fold higher than that of the wild-type” value against EfaUPPS (L146A) [1] is reported as “about 10 fold”. For the same compound, the dissociation constant Kd on EfaUPPS (R42A) is 62.9 ± 25.4 µM; at EfaUPPS (L146A) [2] it was more than 50000 µM. The “Kd fold higher than that of the wild-type” value on EfaUPPS (R42A) (R42A vs wild-type) was “about 10 fold”. The MIC was 2 µg/mL (≈ 3.09 µM) in test [3] (ATCC29212, 18 h); more than 64 µg/mL in [4] (ATCC25922, 18 h); 4 µg/mL (≈ 6.18 µM) in test [5] (ATCC19117, 18 h); 4 µg/mL (≈ 6.18 µM) in test [6] (ATCC29213, 18 h); 8 µg/mL (≈ 12.4 µM) against Escherichia coli BAS 849 (BAS849, 18 h); more than 64 µg/mL in test [7]. Further, the MIC in the test on Escherichia coli DH5α is more than 64 µg/mL. The “competition with FPP for binding to EfaUPPS” value at EfaUPPS is “compete with FPP”.
